Source: US6852754B1, “Biologically active linderazulene terpenes” (Harbor Branch Oceanographic Institution, Inc., priority 2004, dated 2005)

Experiments:
[1] = tested on: P388 murine leukemia cell line; experiment: Antiproliferative MTT assay, P388 cells, 48-h exposure; type: cell-based; conditions: Mus musculus, read-out: P388 (IC50 μg/ml)
Protocol: (§1) Compounds I and II was analyzed as to their effect on the proliferation of PANC-1 human pancreatic and P388 murine leukemia cell lines. P388 cells were obtained from Dr. R. Camalier, National Cancer Institute, Bethesda, Md., and PANC-1 cells were obtained from American Type Culture Collection, Rockville, Md. All cell lines were maintained in tissue culture medium (TCM; Roswell Park Memorial Institute RPMI 1640 supplemented with 100 U/mL penicillin, […] streptomycin, […] 1-glutamine, 18 mM HEPES, 0.05 mg/mL gentamicin (Life Technologies, Gaithersburg, Md.) and 10% fetal bovine serum) and cultured in plastic tissue culture flasks at 37° C. in humidified air containing 5% CO2. Stock cultures of P388 cells were subcultured 1:20 in fresh TCM every 2 to 3 days. Stock cultures of […] cells were subcultured 1:10 every 3 to 4 days. To assess the antiproliferative effects of agents against the cells, […] cultures (96-well tissue culture plates, Nunc, Denmark) were established at 1×10^5 cells/mL in TCM or TCM containing the test agent at 0.03-5.0 μg/mL. After 48-h exposures, P388 cells were enumerated using 3-[4,5-dimethylthiazol-2-yl]-2,5-diphenyltetrazolium bromide (MTT) as described in the literature (M. C. Alley, et al., Cancer Res. 48:589, 1988). […] The results were expressed as percent inhibition compared to the negative (no drug) control. […]

[2] = tested on: PANC-1 human pancreatic cell line; experiment: Antiproliferative MTT assay, PANC-1 cells, 72 hours exposure; type: cell-based
Protocol: as §1

| IC50 [1] [µg/mL] | IC50 ([2]; Homo sapiens, read-out: PANC-1 (IC50 μg/ml)) [µg/mL] | PANC-1 (IC50 μg/ml) [2] | SMILES |
| --- | --- | --- | --- |
| 2.7 | 18.7 |  | COC(=O)c1ccc2c(C)cc3occc3cc1-2 [11-carbomethoxylinderazulene (I), 11-carbomethoxylinderazulene] |
| 15.6 |  | No inhibition of cell | Cc1cc2occc2cc2c(C=O)ccc1-2 [11-formyllinderazulene (II), 11-formyllinderazulene] |
